The results in this text go back to ChEMBL document CHEMBL1201862, “PubChem BioAssay data set” (2004).

Molecules are shown by their SMILES.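 Growth conditions: 96-well plates. Treatment: test compound, 48 hours, 5 concentrations. Analysis: linear interpolation between bracketing concentrations; unreached endpoints set to highest concentration. GI50: concentration for 50% inhibition of growth.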 The source made the active and inactive calls. Rule as the data show it: active = GI50 up to about 1.1 µM and inactive = higher. Bounds are passed on as bounds.

Holding throughout (assay): DTP human tumour cell line panel, 48 h
In test [1] the test system is Malme-3M.
Test [2] concerns T47D.
Test [3] relates to SF-268.
For test [4], the system named is NCI/ADR-RES.
Test [5] concerns NCI-H522.
For test [6], the system named is OVCAR-4.
For test [7], the system named is HCT-15.
The test system of test [8] is SK-OV-3.
Test [9] has as its system U-251.
For test [10], the system named is NCI-H23.
Test [11] has as its system OVCAR-3.
In test [12] the test system is CCRF-CEM.
Test [13] has as its system TK-10.
The test system of test [14] is SW-620.
Test [15] has as its system HOP-62.
Test [16] relates to SK-MEL-5.
The subject of test [17] is SR.
Test [18] relates to HCT-116.
Test [19] deals with HOP-92.

`NC(=O)c1nnc2ccc(F)cc2c1N`: the GI50 in test [1] is > 100 µM (inactive); in test [2], > 100 µM (inactive); in test [3], > 100 µM (inactive); in test [4] it was > 100 µM (inactive); in test [5], 94.6 µM (inactive); in test [6], > 100 µM (inactive). In addition, the concentration for 50% growth inhibition (GI50) in test [7] is over 100 µM; in test [8] it was 87.5 µM (inactive); in [9] it was > 100 µM (inactive); in test [10], > 100 µM (inactive); in test [11], > 100 µM (inactive); in [12], > 100 µM (inactive). For the same compound, the GI50 was 68.7 µM (inactive) in test [13]; > 100 µM (inactive) in test [14]; > 100 µM (inactive) in test [15]; > 100 µM (inactive) in test [16]; > 100 µM (inactive) in test [17]; > 100 µM (inactive) in test [18].
Regarding `COC(=O)C(=O)C(C(=O)C(=O)Nc1ccccc1C(N)=O)c1nc2ccc(Cl)cc2nc1O` (stereo unspecified), the GI50 in test [2] was > 100 µM (inactive); in test [3] it was > 100 µM (inactive); in [4] it was > 100 µM (inactive); in [6], > 100 µM (inactive); in test [7], over 100 µM; in test [8], > 100 µM (inactive). The GI50 in test [9], in [10], in test [11], in [12], in test [19] and in test [14] was > 100 µM (inactive) throughout. Moreover, the GI50 in test [16], in [17] and in test [18] was > 100 µM (inactive) each time.
On to `CC(C)/C(Cl)=N\OC(=O)NNc1ccccc1`, for which the GI50 in test [1] was 15.8 µM (inactive); in [2] it was 2.35 µM (inactive); in test [3], > 91.4 µM (inactive); in [4] it was 28.1 µM (inactive); in test [5], 12.6 µM (inactive); in [6], 7.48 µM (inactive). Further, the GI50 in test [7] is 21.1 µM; in [8], > 100 µM (inactive); in [9] it was 37.6 µM (inactive); in [10], 26.8 µM (inactive); in test [11], > 35.8 µM (inactive); in [12], < 0.0333 µM (active). Besides, the GI50 in [13] was 68.7 µM (inactive); in test [19], 16.3 µM (inactive); in test [14], 6.92 µM (inactive); in test [15], > 43.1 µM (inactive); in [16], 0.0966 µM (active); in test [18] it was 1.03 µM (active).
With `CCOC(=O)CCCn1cc(C(=O)OC)nn1`, the GI50 in test [1] was > 100 µM (inactive); in test [2] it was > 100 µM (inactive); in test [3] it was > 100 µM (inactive); in [4] it was > 100 µM (inactive); in test [6] it was > 100 µM (inactive); in test [7], over 100 µM. The GI50 in [9], in test [10], in test [12], in test [13], in test [19] and in test [14] was > 100 µM (inactive) each time. Also, the GI50 in [15], in test [16] and in test [18] was > 100 µM (inactive) throughout.
As for `OCCOCn1cc(Cn2ncc3c(SCc4ccccc4)ncnc32)nn1`, the GI50 was 76.2 µM (inactive) in test [1]; 27.5 µM (inactive) in [2]; 75.5 µM (inactive) in test [3]; 31.8 µM (inactive) in test [4]; 25.4 µM (inactive) in [5]; 59.3 µM (inactive) in test [6]. Further, the concentration for 50% growth inhibition (GI50) in test [7] is 37.4 µM; in test [8], 61.5 µM (inactive); in [9], 44.1 µM (inactive); in test [10], 38.3 µM (inactive); in test [11], 44.8 µM (inactive); in [13], > 100 µM (inactive). Moreover, the GI50 was 99.8 µM (inactive) in test [19]; 26.7 µM (inactive) in test [14]; 48.1 µM (inactive) in test [15]; 30 µM (inactive) in test [16]; 34.7 µM (inactive) in test [18].
For the compound `COC(=O)C(=O)C(C(=O)C(=O)Nc1nnc(S)[nH]1)c1nc2ccc([N+](=O)[O-])cc2nc1O` (stereo unspecified), the GI50 in [1], in [2], in test [3], in [4], in [5] and in test [6] was > 100 µM (inactive) each time. Moreover, the GI50 was over 100 µM in test [7]; > 100 µM (inactive) in test [8]; > 100 µM (inactive) in [9]; > 100 µM (inactive) in [10]; > 100 µM (inactive) in test [11]; > 100 µM (inactive) in test [12]. Further, the GI50 in [13], in [19], in [14], in test [15], in [16] and in test [18] was > 100 µM (inactive) each time.
As for `COC(=O)C1C(OC(=O)C(Cl)(c2ccccc2)c2ccccc2)CC2CCC1N2C` (stereo unspecified), the GI50 is > 100 µM (inactive) in test [1]; > 100 µM (inactive) in test [2]; > 100 µM (inactive) in [3]; > 100 µM (inactive) in test [4]; > 100 µM (inactive) in test [5]; over 100 µM in test [7]. For the same compound, the GI50 in [8], in test [9], in test [10], in test [11], in [12] and in [13] was > 100 µM (inactive) in each case. Besides, the GI50 in [14], in [15], in [16], in [17] and in [18] was > 100 µM (inactive) in each case.
With `COCn1cnc2c(=O)nc(SC)n(-c3ccccc3)c21`, the GI50 in test [1], in [2], in test [3], in [4], in [5] and in test [6] was > 100 µM (inactive) in each case. Further, the GI50 in test [7] was over 100 µM; in test [8], > 100 µM (inactive); in test [10], > 100 µM (inactive); in [11], > 100 µM (inactive); in test [12], > 100 µM (inactive); in test [13], > 100 µM (inactive). Also, the GI50 in test [19], in test [14], in test [15], in test [16] and in [18] was > 100 µM (inactive) each time.
With `CCOC(=O)C(C#N)C1=CC(=O)C(=O)c2ccc(OC)cc21` (stereo unspecified), the GI50 in test [1] was 16.9 µM (inactive); in [2] it was 14.9 µM (inactive); in test [3] it was 30.2 µM (inactive); in test [4], 20.1 µM (inactive); in test [5], 3.89 µM (inactive); in test [6] it was 19 µM (inactive). The concentration for 50% growth inhibition (GI50) in test [7] was 23.8 µM; in test [8], 18.4 µM (inactive); in test [9], 29.2 µM (inactive); in test [10], 15.5 µM (inactive); in test [11] it was 17.9 µM (inactive); in test [12], 43.3 µM (inactive). The GI50 was 38.5 µM (inactive) in test [13]; 18.4 µM (inactive) in test [14]; 22 µM (inactive) in [15]; 15.2 µM (inactive) in test [16]; 57.1 µM (inactive) in test [17]; 20.7 µM (inactive) in test [18].
With `CC1=C[C@H](C[C@]2(C)c3c(c4c(C)cccc4oc3=O)O[C@@H]2C)OC1=O`, the GI50 in [1] was 29.9 µM (inactive); in [2], 50.8 µM (inactive); in [3], 24.4 µM (inactive); in [4] it was 20.1 µM (inactive); in test [5], 22.6 µM (inactive); in test [7], 18.3 µM. Also, the GI50 in test [8] was > 100 µM (inactive); in [9], > 100 µM (inactive); in test [10] it was 65.5 µM (inactive); in test [11], 37 µM (inactive); in test [12], 19.3 µM (inactive); in test [13] it was > 100 µM (inactive). For the same compound, the GI50 in test [14] was 21.7 µM (inactive); in test [15] it was > 100 µM (inactive); in test [16], > 100 µM (inactive); in [17] it was 22.4 µM (inactive); in [18], 15.7 µM (inactive).
With `O=C1Cc2c([nH]c3c(Br)cccc23)-c2ccccc2N1`, the GI50 in test [1] is > 100 µM (inactive); in [2] it was > 100 µM (inactive); in test [3], 77.1 µM (inactive); in test [4], 40.3 µM (inactive); in test [7], 25.1 µM; in test [8], 37.2 µM (inactive). In addition, the GI50 in test [9] is 57.7 µM (inactive); in test [10], > 100 µM (inactive); in [11], > 100 µM (inactive); in [12] it was 16.4 µM (inactive); in test [14], 38.1 µM (inactive); in test [15], 37.1 µM (inactive). Moreover, the GI50 in test [16] was 30.1 µM (inactive); in test [17] it was 19.1 µM (inactive); in test [18], > 10 µM (inactive).
Take `Cc1ncc([N+](=O)[O-])n1CCNC(=O)CCCCn1ccnc1[N+](=O)[O-]`: the GI50 in test [1] is > 100 µM (inactive); in [2], > 100 µM (inactive); in test [3] it was > 100 µM (inactive); in test [4], > 100 µM (inactive); in [5], > 100 µM (inactive); in [7], over 100 µM. The GI50 in test [8], in test [9], in [10], in [11], in [12] and in test [14] was > 100 µM (inactive) each time. For the same compound, the GI50 in [15], in test [16], in test [17] and in test [18] was > 100 µM (inactive) throughout.
